Literature values in patent US8580318B2, “Natural water soluble extracts for the inhibition of alpha-1-adrenergic receptors” (Naturamed Ltd., priority 2007, dated 2013).

System: serum prostate specific antigen (PSA)
Details: patients with BPH

CC(C)(C)NC(=O)[C@H]1CC[C@H]2[C@@H]3CC[C@H]4NC(=O)C=C[C@]4(C)[C@H]3CC[C@]12C [finasteride, Finasteride]
decrease in serum prostate specific antigen (PSA) levels: approximately 50%
